Assay results: PMC6979384, “Characterization of the plant homeodomain (PHD) reader family for their histone tail interactions” (Epigenetics & Chromatin, 2020)

Assays:
Assay in all cases: Histone peptide microarray
Assay type in all cases: binding, human
DPF2 (PPC2W2) = conditions: GST-tagged DPF2 (PPC2W2 = Dual PHD + C2W2-type Zn-finger); sheet Array Heatmap; each array performed twice, total n = 4
Method in brief: (§1)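 Binding read as mean relative signal from 4 replicates; microarray held 293 synthetic histone peptides with single or combinatorial PTMs. Each GST-tagged PHD reader was applied at 0.5 μM using the optimized Petell protocol.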

PHRF1 (RP) = conditions: GST-tagged PHRF1 (RP); sheet Array Heatmap; each array performed twice, total n = 4
Method in brief: as §1

KDM5B (3) = conditions: GST-tagged KDM5B (3); sheet Array Heatmap; each array performed twice, total n = 4
Method in brief: as §1

ING3 = conditions: GST-tagged ING3; sheet Array Heatmap; each array performed twice, total n = 4
Method in brief: as §1

ING1 = conditions: GST-tagged ING1; sheet Array Heatmap; each array performed twice, total n = 4
Method in brief: as §1

TRIM66 (PB) = conditions: GST-tagged TRIM66 (PB = PHD + Bromodomain); sheet Array Heatmap; each array performed twice, total n = 4
Method in brief: as §1

BPTF (PB) = conditions: GST-tagged BPTF (PB = PHD + Bromodomain); sheet Array Heatmap; each array performed twice, total n = 4
Method in brief: as §1

KDM5B (1) = conditions: GST-tagged KDM5B (1); sheet Array Heatmap; each array performed twice, total n = 4
Method in brief: as §1

PHF21A = conditions: GST-tagged PHF21A; sheet Array Heatmap; each array performed twice, total n = 4
Method in brief: as §1

PHF23 = conditions: GST-tagged PHF23; sheet Array Heatmap; each array performed twice, total n = 4
Method in brief: as §1

CHD5 (PPCC) = conditions: GST-tagged CHD5 (PPCC = Dual PHD + Dual Chromodomain); sheet Array Heatmap; each array performed twice, total n = 4
Method in brief: as §1

MORC3 (CW) = conditions: GST-tagged MORC3 (CW = CW-type Zn-finger); sheet Array Heatmap; each array performed twice, total n = 4
Method in brief: as §1

ING2 = conditions: GST-tagged ING2; sheet Array Heatmap; each array performed twice, total n = 4
Method in brief: as §1

PHF2 = conditions: GST-tagged PHF2; sheet Array Heatmap; each array performed twice, total n = 4
Method in brief: as §1

PHF8 = conditions: GST-tagged PHF8; sheet Array Heatmap; each array performed twice, total n = 4
Method in brief: as §1

TAF3 = conditions: GST-tagged TAF3; sheet Array Heatmap; each array performed twice, total n = 4
Method in brief: as §1

DIDO1 = conditions: GST-tagged DIDO1; sheet Array Heatmap; each array performed twice, total n = 4
Method in brief: as §1

MLL5 = conditions: GST-tagged MLL5; sheet Array Heatmap; each array performed twice, total n = 4
Method in brief: as §1

CHD4 (PPCC) = conditions: GST-tagged CHD4 (PPCC = Dual PHD + Dual Chromodomain); sheet Array Heatmap; each array performed twice, total n = 4
Method in brief: as §1

SP140L = conditions: GST-tagged SP140L; sheet Array Heatmap; each array performed twice, total n = 4
Method in brief: as §1

KDM4C (TTP) = conditions: GST-tagged KDM4C (TTP = Tandem Tudor domain + PHD); sheet Array Heatmap; each array performed twice, total n = 4
Method in brief: as §1

PHF13 = conditions: GST-tagged PHF13; sheet Array Heatmap; each array performed twice, total n = 4
Method in brief: as §1

ING5 = conditions: GST-tagged ING5; sheet Array Heatmap; each array performed twice, total n = 4
Method in brief: as §1

KDM7A = conditions: GST-tagged KDM7A; sheet Array Heatmap; each array performed twice, total n = 4
Method in brief: as §1

KDM5A (1) = conditions: GST-tagged KDM5A (1); sheet Array Heatmap; each array performed twice, total n = 4
Method in brief: as §1

AIRE (PP) = conditions: GST-tagged AIRE (PP); sheet Array Heatmap; each array performed twice, total n = 4
Method in brief: as §1

KDM5A (3) = conditions: GST-tagged KDM5A (3); sheet Array Heatmap; each array performed twice, total n = 4
Method in brief: as §1

ING4 = conditions: GST-tagged ING4; sheet Array Heatmap; each array performed twice, total n = 4
Method in brief: as §1

CHD5 (PCC) = conditions: GST-tagged CHD5 (PCC = PHD + Dual Chromodomain); sheet Array Heatmap; each array performed twice, total n = 4
Method in brief: as §1

RAG2 = conditions: GST-tagged RAG2; sheet Array Heatmap; each array performed twice, total n = 4
Method in brief: as §1

BAZ2B = conditions: GST-tagged BAZ2B; sheet Array Heatmap; each array performed twice, total n = 4
Method in brief: as §1

Substance: H3T3p + K4me3: H3 1-20
- Array Heatmap signal (histone peptide microarray) (DPF2 (PPC2W2)): 0.6866
- Array Heatmap signal (histone peptide microarray) (PHRF1 (RP)): 0.4433
- Array Heatmap signal (histone peptide microarray) (KDM5B (3)): 0.5163
- Array Heatmap signal (histone peptide microarray) (ING3): 0.4764
- Array Heatmap signal (histone peptide microarray) (ING1): 0.5588
- Array Heatmap signal (histone peptide microarray) (TRIM66 (PB)): 0.5989
- Array Heatmap signal (histone peptide microarray) (BPTF (PB)): 0.35
- Array Heatmap signal (histone peptide microarray) (KDM5B (1)): 0.6609
- Array Heatmap signal (histone peptide microarray) (PHF21A): 0.4603
- Array Heatmap signal (histone peptide microarray) (PHF23): 0.5295
- Array Heatmap signal (histone peptide microarray) (CHD5 (PPCC)): 0.5481
- Array Heatmap signal (histone peptide microarray) (MORC3 (CW)): 0.5559
- Array Heatmap signal (histone peptide microarray) (ING2): 0.6632
- Array Heatmap signal (histone peptide microarray) (PHF2): 0.5905
- Array Heatmap signal (histone peptide microarray) (PHF8): 0.3669
- Array Heatmap signal (histone peptide microarray) (TAF3): 0.2953
- Array Heatmap signal (histone peptide microarray) (DIDO1): 0.6916
- Array Heatmap signal (histone peptide microarray) (MLL5): 0.5412
- Array Heatmap signal (histone peptide microarray) (CHD4 (PPCC)): 0.624
- Array Heatmap signal (histone peptide microarray) (SP140L): 0.3246
- Array Heatmap signal (histone peptide microarray) (KDM4C (TTP)): 0.4706
- Array Heatmap signal (histone peptide microarray) (PHF13): 0.62
- Array Heatmap signal (histone peptide microarray) (ING5): 0.3533
- Array Heatmap signal (histone peptide microarray) (KDM7A): 0.3295
- Array Heatmap signal (histone peptide microarray) (KDM5A (1)): 0.462
- Array Heatmap signal (histone peptide microarray) (AIRE (PP)): 0.3968
- Array Heatmap signal (histone peptide microarray) (KDM5A (3)): 0.5826
- Array Heatmap signal (histone peptide microarray) (ING4): 0.4716
- Array Heatmap signal (histone peptide microarray) (CHD5 (PCC)): 0.7821
- Array Heatmap signal (histone peptide microarray) (RAG2): 0.2672
- Array Heatmap signal (histone peptide microarray) (BAZ2B): 0.4608
